Measurements reported in patent publication US10750729B2, “Pig for atrioventricular block model, monkey for atrioventricular block model, guinea pig for atrioventricular block model, and use thereof” (Toho University, priority 2012, dated 2020).
“And” between values parts separate entries of the source, which are not always exact repeats. Identical values can stand only once.

Legend:
[1] = system: Extremely small-size miniature pigs (Microminipig); experiment: Test Example 1: electrocardiogram of halothane-anesthetized extremely small-size miniature pigs; assay type: in vivo; settings: pig; for Heart rate (HR) / PR interval / QT interval / RR interval: 0.1 mg/kg/10 min i.v., individuals #1, #2, 0.1 mg/kg
Text: Extremely small-size miniature pigs (trade name: Microminipig, body weight: about 10 kg, male, obtained from Fuji Micra Inc.) were each anesthetized by allowing them to inhale 100% by volume oxygen and 4% by volume vaporized halothane (product of Takeda Pharmaceutical Company Limited.). After insertion of a tracheal cannula, an artificial respirator was used to ventilate it with 100% by volume oxygen and 1% by volume vaporized halothane. Here, the artificial respirator for experimental animals was set to a tidal volume of 10 mL/kg and a respiration rate of 20 strokes/min. Next, a cannula for drug administration was inserted to their left femoral vein. Then, ECG standard limb II leads was continuously recorded.
Each of the extremely small-size miniature pigs (n=2) of Example 1 was recorded for an electrocardiogram before drug administration.
Fingolimod (FTY720, product of Sigma-Aldrich Inc.) was dissolved in physiological saline (product of Otsuka Pharmaceutical Factory, Inc.) so as to have a concentration of 0.1 mg/mL.
After the evaluation of base control, the cannula for drug administration was inserted, and the above-prepared FTY720 solution was intravenously administered to each of the extremely small-size miniature pigs (n=2) of Example 1 for 10 min at a dose of 0.1 mg/kg. An electrocardiogram was recorded for 60 min from the start of administration of the FTY720 solution.

[2] = system: dog; settings: dose 10 times to 30 times greater than that for human; cited from earlier work
[3] = system: Dogs; experiment: Comparative Test Example 1: electrocardiogram of halothane-anesthetized dogs; assay type: in vivo; settings: dog, 30 min recording
Experimental: Dogs (body weight: 10 kg, male, obtained from Nosan Co., Ltd.) were each anesthetized by intravenously administering thereto sodium thiopental (product of Mitsubishi Tanabe Pharma Corporation) at 30 mg/kg. After insertion of a tracheal cannula, an artificial respirator was used to ventilate it with 100% by volume oxygen and 1% by volume vaporized halothane. Here, the artificial respirator for experimental animals was set to a tidal volume of 20 mL/kg and a respiration rate of 15 strokes/min. Next, a cannula for drug administration was inserted to their left femoral vein. Then, ECG standard limb II leads was continuously recorded.
Each of the dogs (n=4) of Comparative Example 1 was recorded for an electrocardiogram before drug administration.
Fingolimod (FTY720, product of Sigma-Aldrich Inc.) was dissolved in 1% by mass lactic acid solution (product of Otsuka Pharmaceutical Factory, Inc.) so as to have a concentration of 0.3 mg/mL.
After the evaluation of base control, the cannula for drug administration was inserted, and the above-prepared FTY720 solution was intravenously administered to each of the dogs (n=4) of Comparative Example 1 for 10 min at a dose of 0.3 mg/kg. An electrocardiogram was recorded for 30 min from the start of administration of the FTY720 solution.
Fingolimod (FTY720, product of Sigma-Aldrich Inc.) was dissolved in 1% by mass lactic acid solution (product of Otsuka Pharmaceutical Factory, Inc.) so as to have a concentration of 3 mg/mL.
After the evaluation of base control, the cannula for drug administration was inserted, and the above-prepared FTY720 solution was intravenously administered to each of the dogs (n=4) of Comparative Example 1 for 10 min at a dose of 3 mg/kg. An electrocardiogram was recorded for 30 min from the start of administration of the FTY720 solution.

[4] = system: mouse; settings: dose 10 times to 30 times greater than that for human; cited from earlier work
[5] = system: human; settings: 366 cases, 1.25 mg/day, Holter ECG one day after administration; cited from earlier work
[6] = 10 min after the administration
[7] = 60 min after the administration

Question: With `CCCCCCCCc1ccc(CCC(N)(CO)CO)cc1` [FTY720, Fingolimod] as the compound, how does the “QT interval change versus base control” value ([1]; 0.1 mg/kg i.v., 10 min after the administration) read?
Answer: prolongation of QT interval was observed

Question: What about the “PR interval change versus base control” value ([1]; 0.1 mg/kg i.v., 60 min after the administration) of the same compound?
Answer: prolongation of PR interval was also observed

Question: And the “Heart rate (HR)” value [1, 6]?
Answer: 137 beats/min and 192 beats/min

Question: And the PR interval [1, 6]?
Answer: 78 ms and 71 ms

Question: And the QT interval [1, 6]?
Answer: 271 ms and 221 ms

Question: What about the RR interval [1, 6] of the same compound?
Answer: 438 ms and 311 ms

Question: And the “Heart rate (HR)” value [1, 7]?
Answer: 197 beats/min and 108 beats/min

Question: What about the PR interval [1, 7] of the same compound?
Answer: 75 ms and 89 ms

Question: What about the QT interval [1, 7] of the same compound?
Answer: 227 ms and 271 ms

Question: And the RR interval [1, 7]?
Answer: 304 ms and 552 ms

Question: And the “occurrence of atrioventricular block” value [2]?
Answer: not reported

Question: And the “change in PR interval” value ([3]; high-dose 3 mg/kg/10 min i.v.)?
Answer: no change

Question: What about the “change in heart rate (HR)” value ([3]; high-dose 3 mg/kg/10 min i.v.) of the same compound?
Answer: significantly increased

Question: What about the “change in PR interval” value ([3]; low-dose 0.3 mg/kg/10 min i.v.) of the same compound?
Answer: no significant change

Question: And the “change in heart rate (HR)” value ([3]; low-dose 0.3 mg/kg/10 min i.v.)?
Answer: no significant change

Question: What about the “occurrence of atrioventricular block” value [4] of the same compound?
Answer: not reported

Question: And the “cases that developed advanced atrioventricular block (2:1 atrioventricular block)” value [5]?
Answer: 3.4%

Question: What about the “cases that developed second-degree atrioventricular block (Mobitz type I or type II)” value [5] of the same compound?
Answer: 6.6%

Question: And the “cases that developed third-degree atrioventricular block (complete atrioventricular block)” value [5]?
Answer: 0.3%
